# Source: US20260217701A1, “SELECTIVE BET INHIBITORS AND USES THEREOF” (Tay Therapeutics Limited, priority 2022, published 2026)
# Values joined by “and” are separate entries in the source; they are usually repeats but may differ in a detail not shown here. Equal entries are not always repeated.
# Tested on: imiquimod-induced psoriasis
# Assay: Imiquimod-induced psoriasis model
# Type: in vivo, mice
# Conditions: for PASI Scores / Number Licking / Number Licking + Scratching / Number Scratching / Distance Traveled / Number Rearings: individual animals; for Distance Traveled / Number Rearings: behavioral evaluation
# Summary of the method: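 Mice given topical imiquimod (5% cream) daily on depilated backs Days 1–14; Compound A in 5% DMSO/40% PEG-400/55% saline from Day 8, clobetasol topical as reference. Daily PASI (erythema, induration, peeling, each 0–4, summed) Days 8–15; spleen weight, open-field behaviour, serum IL-1B, IL-6, IL-17, TNF-α, IL-22, IL-23 at Day 15.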
# [1] = IMI-psoriasis model, behavioral evaluation D15, 1 mg/kg
# [2] = IMI-psoriasis model, behavioral evaluation D15, 3 mg/kg
# [3] = IMI-psoriasis model, behavioral evaluation D15, 10 mg/kg
structure (smiles),measurement,setting,value
"Cn1cc(-c2ccccc2)c(-c2cn(C)c(=O)c3[nH]c(-c4cnn(C(F)(F)F)c4)cc23)cc1=O [Compound A, 6-methyl-4-(1-methyl-2-oxo-5-phenyl-1,2-dihydropyridin-4-yl)-2-(1-(trifluoromethyl)-1H-pyrazol-4-yl)-1,6-dihydro-7H-pyrrolo[2,3-c]pyridin-7-one]",PASI Scores,"IMI + Compound A 1 mg/kg, D12, 1 mg/kg",6 and 4 (4×) and 5 (2×) and 3
same,PASI Scores,"IMI + Compound A 1 mg/kg, D13, 1 mg/kg",3 (4×) and 2 (2×) and 4 and 5
same,PASI Scores,"IMI + Compound A 1 mg/kg, D14, 1 mg/kg",1 (2×) and 2 (3×) and 3 (3×)
same,PASI Scores,"IMI + Compound A 1 mg/kg, D15, 1 mg/kg",1 (5×) and 2 (2×) and 0
same,PASI Scores,"IMI + Compound A 3 mg/kg, D8 (day treatment started), 3 mg/kg",8 and 6 and 7 and 5 and 9
same,PASI Scores,"IMI + Compound A 3 mg/kg, D9, 3 mg/kg",8 (3×) and 5 and 6
same,PASI Scores,"IMI + Compound A 3 mg/kg, D10, 3 mg/kg",6 and 7 and 4 and 5 (2×)
same,PASI Scores,"IMI + Compound A 3 mg/kg, D11, 3 mg/kg",4 (2×) and 3 (2×) and 5
same,PASI Scores,"IMI + Compound A 3 mg/kg, D12, 3 mg/kg",3 and 4 and 2 and 5
same,PASI Scores,"IMI + Compound A 3 mg/kg, D13, 3 mg/kg",2 (3×) and 0
same,PASI Scores,"IMI + Compound A 3 mg/kg, D14, 3 mg/kg",2 and 0 (2×) and 1
same,PASI Scores,"IMI + Compound A 3 mg/kg, D15, 3 mg/kg",1 (2×) and 0 (2×)
same,Use Enrichment D1,"IMI-psoriasis model, D1, 1 mg/kg, per cage (two animals)",4.0
same,Use Enrichment D1,"IMI-psoriasis model, D1, 3 mg/kg, per cage (two animals)",4.0 and 3.5
same,Use Enrichment D1,"IMI-psoriasis model, D1, 10 mg/kg, per cage (two animals)",4.0
same,Use Enrichment D8,"IMI-psoriasis model, D8, 1 mg/kg, per cage (two animals)",1.0 and 1.5
same,Use Enrichment D10,"IMI-psoriasis model, D10, 1 mg/kg, per cage (two animals)",2.5 and 3.5 and 2.0
same,Use Enrichment D10,"IMI-psoriasis model, D10, 3 mg/kg, per cage (two animals)",2.0 and 3.0
same,Use Enrichment D10,"IMI-psoriasis model, D10, 10 mg/kg, per cage (two animals)",3.0 and 4.0
same,Use Enrichment D11,"IMI-psoriasis model, D11, 1 mg/kg, per cage (two animals)",3.0 and 4.0 and 2.0
same,Use Enrichment D11,"IMI-psoriasis model, D11, 3 mg/kg, per cage (two animals)",3.0 and 4.0
same,Use Enrichment D11,"IMI-psoriasis model, D11, 10 mg/kg, per cage (two animals)",3.0 and 4.0
same,Use Enrichment D12,"IMI-psoriasis model, D12, 1 mg/kg, per cage (two animals)",2.0 and 2.5 and 4.0
same,Use Enrichment D12,"IMI-psoriasis model, D12, 3 mg/kg, per cage (two animals)",3.0
same,Use Enrichment D12,"IMI-psoriasis model, D12, 10 mg/kg, per cage (two animals)",2.0 and 4.0 and 3.0
same,Use Enrichment D13,"IMI-psoriasis model, D13, 1 mg/kg, per cage (two animals)",4.0
same,Use Enrichment D13,"IMI-psoriasis model, D13, 3 mg/kg, per cage (two animals)",4.0
same,Use Enrichment D13,"IMI-psoriasis model, D13, 10 mg/kg, per cage (two animals)",4.0
same,Use Enrichment D14,"IMI-psoriasis model, D14, 1 mg/kg, per cage (two animals)",4.0
same,Use Enrichment D14,"IMI-psoriasis model, D14, 3 mg/kg, per cage (two animals)",4.0
same,Use Enrichment D14,"IMI-psoriasis model, D14, 10 mg/kg, per cage (two animals)",4.0
same,Use Enrichment D15,"IMI-psoriasis model, D15, 1 mg/kg, per cage (two animals)",4.0
same,Use Enrichment D15,"IMI-psoriasis model, D15, 3 mg/kg, per cage (two animals)",4.0
same,Use Enrichment D15,"IMI-psoriasis model, D15, 10 mg/kg, per cage (two animals)",4.0
same,Number Licking,[1],3 (2×) and 5 and 1 and 4 and 2 (2×) and 0
same,Number Licking + Scratching,[1],3 (2×) and 5 (2×) and 8 and 2 (2×) and 0
same,Number Scratching,[1],0 (6×) and 7 and 1
same,Number Licking,[2],3 and 5 and 1 (3×) and 4 (2×)
same,Number Licking + Scratching,[2],3 and 5 and 1 (3×) and 4 (2×)
same,Number Scratching,[2],0
same,Number Licking,[3],2 (4×) and 7 and 1 and 4 and 5
same,Number Licking + Scratching,[3],3 and 11 and 2 (3×) and 4 (2×) and 5
same,Number Scratching,[3],1 (2×) and 4 and 0 (4×) and 2
same,Distance Traveled,"IMI-psoriasis model, 1 mg/kg",18 m and 11 m and 14 m (2×) and 12 m and 16 m (2×) and 4 m
same,Number Rearings,"IMI-psoriasis model, 1 mg/kg",42 and 52 and 50 and 55 and 35 and 78 and 46 and 4
same,Distance Traveled,"IMI-psoriasis model, 3 mg/kg",12 m (3×) and 13 m (2×) and 8 m and 9 m
same,Number Rearings,"IMI-psoriasis model, 3 mg/kg",41 and 43 and 34 (2×) and 24 and 8 and 47
same,Distance Traveled,"IMI-psoriasis model, 10 mg/kg",4 m and 13 m (2×) and 10 m and 8 m and 7 m and 6 m and 11 m
same,Number Rearings,"IMI-psoriasis model, 10 mg/kg",6 and 39 and 38 and 46 and 11 and 21 and 13 and 55
same,Use Enrichment Mean D1-D8,"IMI-psoriasis model, mean D1-D8, 1 mg/kg, per cage (two animals)",2.50 and 2.75
same,Use Enrichment Mean D1-D8,"IMI-psoriasis model, mean D1-D8, 3 mg/kg, per cage (two animals)",2.50 and 2.00 and 2.25
same,Use Enrichment Mean D1-D8,"IMI-psoriasis model, mean D1-D8, 10 mg/kg, per cage (two animals)",2.50 and 2.75 and 2.00
same,Use Enrichment Mean D8-D15,"IMI-psoriasis model, mean D8-D15, 1 mg/kg, per cage (two animals)",3.00 and 3.36 and 3.14
same,Use Enrichment Mean D8-D15,"IMI-psoriasis model, mean D8-D15, 3 mg/kg, per cage (two animals)",3.00 and 3.14 and 2.86
